Laboratory results taken from patent US11013745B2, “Triazolopyrimidine, triazolopyridine compounds, and the composition thereof for treating PRC2-mediated diseases” (SHANGHAI INSTITUTE OF MATERIA MEDICA, CHINESE ACADEMY OF …, priority 2017, dated 2021).
Read-outs that look alike come from different tables or passages of the source.

Legend:
Pfeiffer cells [1] = assay: Pfeiffer cell growth inhibition in a long term (11 days), CellTiter-Glo; assay type: cell-based, Human; conditions: Homo sapiens, 264 h, 11 days, read-out: Experiment on Pfeiffer cell growth inhibition in a long term (11 days IC50)
Experimental: Pfeiffer cells in exponential growth phase were seeded in a 24-well plate with a cell density of 1*10E5 cells/mL. Cells were treated on the same day with the compounds at different concentrations. At day 4 and day 7 of compound treatment, fresh media and compounds were changed. After treated with the compounds for 11 days, cell viability was measured using CellTiter-Glo reagent (Promega Corporation). The data was analyzed using GraphPad Prism 5.0 software and GI50 values were obtained.

PRC2 enzyme = PRC2 enzyme (Homo sapiens (Human), UniProt O75530); assay: PRC2 enzyme activity, TR-FRET method; assay type: biochemical
Experimental: The TR-FRET method was used to measure the PRC2 enzyme activity. First, the enzyme was mixed with compounds at different concentrations and incubated for 30 min at room temperature. The biotin-labeled histone H3 peptide substrate and the cofactor S-adenosylmethionine (SAM) were added to initiate the enzymatic reaction. After reaction was performed at room temperature for 4 hour, Acceptor and Donor were added and incubated for half an hour. The multifunctional microplate reader EnVision (Perkin Elmer Inc.) was used to detect the fluorescence signal. Data were analyzed using GraphPad Prism 5.0 software, and IC50 values were obtained.

[2] = Liver microsomal stability (rat); assay type: in vitro ADME
Experimental: (§1) 1. JANUS and temperature control device was turned on. After being initialized, the pipes were flushed until there was no air bubble in the pipes.
(§2) 2. Preparation of buffers used for the experiment
(§3) Preparation of Tris pH 7.4 buffer (0.1 M): 12.12 g of Tris was dissolved in 1000 mL of H2O, the resulting solution was adjusted to pH 7.4 with 2N HCl, aliquoted at 50 mL per tube, and stored at −20° C.
(§4) Preparation of H2O/0.1% BSA buffer: 200 μL of 25% BSA was added to 50 mL of H2O.
(§5) Preparation of VIVID stock solution: 1 mg of VIVID was dissolved in 1 mL of acetonitrile, aliquoted at 50 μL per tube, and stored at −20° C.
(§6) Preparation of MgCl2 solution (100 mM): 1.016 g of MgCl2 was dissolved in 50 mL Tris pH 7.4 buffer, and aliquoted at 1 mL per tube, and stored at −20° C.
(§7) Preparation of NADPH solution (10 mM): 355 mg of NADPH was dissolved in 42.6 mL of Tris pH 7.4 buffer, aliquoted at 1.8 mL per tube, and stored at −20° C.
(§8) Preparation of Blank control: 7.937 mL of Tris, 163 μL of RLM, 450 μL of MgCl2 solution, 450 μL of NADPH solution and 9 mL of methanol were mixed uniformly, aliquoted at 1 mL per tube, and stored at −20° C.
(§9) 3. Preparation of Compound Working Solution
(§10) Dilution step 1:10 μL of compound stock solution was added to 90 μL of DMSO=1 mM stock solution.
(§11) Dilution step 2: 2 μL of 1 mM stock solution was added to 1 mL of H2O/0.1%6 BSA buffer=[…] working solution.
(§12) Dilution step 3: 245 μL of the working solution was added to a 96-well compound plate and added with 5 μL of VIVID stock solution.
(§13) The 96-well compound plate was shaken on a shaker for 5 min.
(§14) 4. The STM in the JANUS in the computer was open to run the EXCEL file, and the JANUS program was operated and run by following the instructions in the EXCEL file.
(§15) 5. After the JANUS program was finished, acetonitrile/water 50:50 (V/V) was added to column 20 of the 384-well black plate, and blank control was added to column 21 of the 384-well black plate.
(§16) 6. the plate (420 nm-465 nm) was read on a microplate reader to determine the VIVID fluorescence intensity.
(§17) 7. After the plate was sealed, shaken and centrifuged, the sample plate was subjected to the LC/MS instrument for sample analysis.
(§18) A profile of the logarithmic value of the remaining rate of the drug in the incubation system versus the incubation time was plotted, and the slope k was obtained by linear regression. The intrinsic clearance rate in vivo (Clint, mL/min/g) value, the clearance rate in vivo (Cl, mL)/min), liver clearance (Clhep, mL/min) and metabolic bioavailability (% MF) were predicted according to the following equations: […]

[3] = Liver microsomal stability (mouse); assay type: in vitro ADME
[4] = Liver microsomal stability (human); assay type: in vitro ADME
Experimental: as §1, §2, §3, §4, §5, §6, §7, §8, §9, §10, §11, §12, §13, §14, §15, §16, §17, §18

Karpas-422 cells = assay: Growth inhibition of Karpas-422 cells in a long term (11 days), CellTiter-Glo; assay type: cell-based, Human; conditions: Homo sapiens, 264 h; Karpas-422, 11 days; read-out: Karpas-422 (11 days) IC50
Pfeiffer cells [5] = assay: Growth inhibition of Pfeiffer cells in a long term (14 days), CellTiter-Glo; assay type: cell-based, Human; conditions: Homo sapiens, 336 h, 14 days, read-out: Pfeiffer (14 days) IC50
Experimental: In a CO2 cell incubator (37° C., 5% CO2), Human diffuse large B-cell lymphoma (DLBCL) cell line, pfeiffer (obtained from ATCC, CRL-2632) were incubated with RPMI 1640 medium (Gibco, purchased from Life Technologies, 22400-089) containing 10% fetal bovine serum (Gibco, purchased from Life Technologies, 10099-141) and 1% antibiotics (penicillin and streptomycin, purchased from Life Technologies, 10378016). […] After seeding the cells, they were placed in a CO2 incubator and allowed to stand for 1 hour. In a 24-well plate containing cells, 2 μL of three-fold gradient of the compounds at 9 different concentrations or DMSO were added to each well, such that the final concentration of the compounds was 0.003-20 μM or 0.3-2000 nM, and the final concentration of DMSO was 0.2%. At day 4, day 7, and day 11 of compound treatment, the fresh medium and compounds were changed, and the cell density of the DMSO control well was diluted to 2*10E5 cells/mL. The cell dilution ratio for other compound wells was the same as that of the DMSO control well. Cell viability was determined by using CellTiter-Glo reagent (purchased from Promega Inc., G7572): cells treated with the compounds for 14 days were transferred to a white 384-well plate (OptiPlate-384, purchased from PerkinElmer, 6007299) at 40 μL/well, an equal volume of CellTiter-Glo reagent was further added. After incubating at room temperature for 10 min, the cold luminescence signal was detected with a multifunctional microplate reader EnVision (PerkinElmer) at a wavelength of 400 to 700 nm. Data were analyzed using GraphPad Prism 5.0 software, and IC50 values were obtained.

[6] = rat, liver microsomes, pH 7.4, rat liver microsomes, read-out: Half life T-half
[7] = mouse, liver microsomes, pH 7.4, mouse liver microsomes, read-out: Half life T-half
[8] = human, liver microsomes, pH 7.4, human liver microsomes, read-out: Half life T-half
[9] = human, liver microsomes, pH 7.4, human liver microsomes, read-out: Metabolic bioavailability MF %

Chain of PRC2 enzyme (O75530 whole entry): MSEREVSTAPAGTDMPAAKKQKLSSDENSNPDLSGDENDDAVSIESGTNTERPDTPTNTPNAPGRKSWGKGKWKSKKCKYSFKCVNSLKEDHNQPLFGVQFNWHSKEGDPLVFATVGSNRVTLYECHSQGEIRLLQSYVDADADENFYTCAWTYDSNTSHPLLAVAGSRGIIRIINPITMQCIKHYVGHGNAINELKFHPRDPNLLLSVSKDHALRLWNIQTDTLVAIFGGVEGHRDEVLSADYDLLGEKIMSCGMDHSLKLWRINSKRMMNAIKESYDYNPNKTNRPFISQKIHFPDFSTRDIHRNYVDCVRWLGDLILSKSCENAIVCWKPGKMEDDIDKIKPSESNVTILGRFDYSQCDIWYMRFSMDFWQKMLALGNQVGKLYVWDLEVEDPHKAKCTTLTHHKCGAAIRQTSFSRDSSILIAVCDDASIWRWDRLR
Chain of PRC2 enzyme (Q15910 whole entry partner): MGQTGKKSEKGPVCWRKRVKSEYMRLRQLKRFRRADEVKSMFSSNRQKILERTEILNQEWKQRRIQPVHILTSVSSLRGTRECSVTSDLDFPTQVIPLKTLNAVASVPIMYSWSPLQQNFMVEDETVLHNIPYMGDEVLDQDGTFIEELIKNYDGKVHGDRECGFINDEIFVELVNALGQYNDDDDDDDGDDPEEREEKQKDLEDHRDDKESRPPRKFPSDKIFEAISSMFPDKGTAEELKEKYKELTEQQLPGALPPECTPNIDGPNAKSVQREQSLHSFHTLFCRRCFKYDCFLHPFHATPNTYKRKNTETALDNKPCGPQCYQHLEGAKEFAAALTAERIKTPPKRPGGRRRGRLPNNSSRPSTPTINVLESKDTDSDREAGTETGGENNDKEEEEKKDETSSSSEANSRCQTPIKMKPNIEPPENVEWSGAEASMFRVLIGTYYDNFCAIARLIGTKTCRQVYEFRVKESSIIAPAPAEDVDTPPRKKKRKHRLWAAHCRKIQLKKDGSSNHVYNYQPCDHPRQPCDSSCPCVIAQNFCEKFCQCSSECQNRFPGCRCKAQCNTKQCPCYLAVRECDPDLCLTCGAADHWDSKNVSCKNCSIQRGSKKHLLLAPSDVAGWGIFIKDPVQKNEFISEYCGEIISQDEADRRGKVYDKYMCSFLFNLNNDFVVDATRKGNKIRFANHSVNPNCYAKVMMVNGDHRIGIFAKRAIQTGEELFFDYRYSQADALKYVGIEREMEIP
Chain of PRC2 enzyme (Q15022 whole entry partner): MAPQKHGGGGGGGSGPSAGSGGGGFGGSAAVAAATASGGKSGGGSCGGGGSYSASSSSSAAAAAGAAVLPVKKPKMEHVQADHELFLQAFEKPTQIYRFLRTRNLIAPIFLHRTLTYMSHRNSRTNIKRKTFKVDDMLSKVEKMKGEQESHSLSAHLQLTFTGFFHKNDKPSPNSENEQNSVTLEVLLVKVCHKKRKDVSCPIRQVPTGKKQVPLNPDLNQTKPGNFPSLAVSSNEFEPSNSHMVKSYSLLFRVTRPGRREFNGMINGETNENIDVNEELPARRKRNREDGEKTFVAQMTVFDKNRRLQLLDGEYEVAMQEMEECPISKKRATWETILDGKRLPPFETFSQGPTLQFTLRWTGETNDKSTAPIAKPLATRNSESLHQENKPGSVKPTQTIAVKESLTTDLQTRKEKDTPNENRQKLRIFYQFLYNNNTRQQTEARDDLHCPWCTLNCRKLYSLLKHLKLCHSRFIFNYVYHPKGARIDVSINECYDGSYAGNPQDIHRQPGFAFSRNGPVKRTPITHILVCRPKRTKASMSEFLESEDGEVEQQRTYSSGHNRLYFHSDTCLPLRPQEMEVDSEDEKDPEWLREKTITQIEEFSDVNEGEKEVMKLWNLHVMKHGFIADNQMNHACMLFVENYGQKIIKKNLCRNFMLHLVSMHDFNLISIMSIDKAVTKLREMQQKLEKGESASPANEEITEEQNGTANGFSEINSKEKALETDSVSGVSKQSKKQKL

## O=C(CN1CCOCC1)N1CC=C(c2cnc(NCc3c(F)ccc4c3CCO4)n3cnnc23)CC1 [E-Y40]
Pfeiffer cells [1]
  IC50: 5.4 nM
PRC2 enzyme
  IC50: 16.1 nM
[2]; rat liver microsomes
  Clearance rate in vivo Clint In Vivo Extpl: 59.6 mL/min
  Intrinsic clearance rate in vivo Clint In Vitro: 133 mL/min/gprot
  Liver clearance rate Clint Hep In Vivo Extpl: 15.0 mL/min
  Metabolic bioavailability MF %: 25.1%
[2]; [6]
  half-life: 0.265 h
[3]; mouse liver microsomes
  Clearance rate in vivo Clint In Vivo Extpl: 23.2 mL/min
  Intrinsic clearance rate in vivo Clint In Vitro: 344 mL/min/gprot
  Liver clearance rate Clint Hep In Vivo Extpl: 2.66 mL/min
  Metabolic bioavailability MF %: 11.4%
[3]; [7]
  half-life: 0.102 h
[4]; human liver microsomes
  Clearance rate in vivo Clint In Vivo Extpl: 2522 mL/min
  Intrinsic clearance rate in vivo Clint In Vitro: 33.0 mL/min/gprot
  Liver clearance rate Clint Hep In Vivo Extpl: 941 mL/min
[4]; [8]
  half-life: 1.06 h
[4]; [9]
  bioavailability: 37.3%

## Cc1cc(C(=O)N2CC=C(c3cnc(NCc4c(F)ccc5c4CCO5)n4cnnc34)CC2)n(C)n1 [E-Y42]
Pfeiffer cells [1]
  IC50: 3.6 nM
PRC2 enzyme
  IC50: 4.8 nM
Karpas-422 cells
  IC50: 10 nM
Pfeiffer cells [5]
  IC50: 1.5 nM

## O=C(C1CCOCC1)N1CC=C(c2cnc(NCc3c(F)ccc4c3CCO4)n3cnnc23)CC1 [E-Y43]
Pfeiffer cells [1]
  IC50: 3.3 nM
PRC2 enzyme
  IC50: 8.5 nM
[2]; rat liver microsomes
  Clearance rate in vivo Clint In Vivo Extpl: 44.8 mL/min
  Intrinsic clearance rate in vivo Clint In Vitro: 99.6 mL/min/gprot
  Liver clearance rate Clint Hep In Vivo Extpl: 13.8 mL/min
  Metabolic bioavailability MF %: 30.9%
[2]; [6]
  half-life: 0.352 h
[3]; mouse liver microsomes
  Clearance rate in vivo Clint In Vivo Extpl: 10.9 mL/min
  Intrinsic clearance rate in vivo Clint In Vitro: 161 mL/min/gprot
  Liver clearance rate Clint Hep In Vivo Extpl: 2.35 mL/min
  Metabolic bioavailability MF %: 21.6%
[3]; [7]
  half-life: 0.217 h
[4]; human liver microsomes
  Clearance rate in vivo Clint In Vivo Extpl: 1464 mL/min
  Intrinsic clearance rate in vivo Clint In Vitro: 19.1 mL/min/gprot
  Liver clearance rate Clint Hep In Vivo Extpl: 741 mL/min
[4]; [8]
  half-life: 1.83 h
[4]; [9]
  bioavailability: 50.6%

## CC(=O)N1CCC(c2cnc(NCc3c(F)ccc4c3CCO4)n3cnnc23)CC1 [E-Y50]
Pfeiffer cells [1]
  IC50: 3.8 nM
PRC2 enzyme
  IC50: 5.3 nM
[2]; rat liver microsomes
  Clearance rate in vivo Clint In Vivo Extpl: 10.9 mL/min
  Intrinsic clearance rate in vivo Clint In Vitro: 24.2 mL/min/gprot
  Liver clearance rate Clint Hep In Vivo Extpl: 7.05 mL/min
  Metabolic bioavailability MF %: 64.8%
[2]; [6]
  half-life: 1.45 h
[3]; mouse liver microsomes
  Clearance rate in vivo Clint In Vivo Extpl: 0.921 mL/min
  Intrinsic clearance rate in vivo Clint In Vitro: 13.6 mL/min/gprot
  Liver clearance rate Clint Hep In Vivo Extpl: 0.705 mL/min
  Metabolic bioavailability MF %: 76.5%
[3]; [7]
  half-life: 2.57 h
[4]; human liver microsomes
  Clearance rate in vivo Clint In Vivo Extpl: 174 mL/min
  Intrinsic clearance rate in vivo Clint In Vitro: 2.28 mL/min/gprot
  Liver clearance rate Clint Hep In Vivo Extpl: 156 mL/min
[4]; [8]
  half-life: 15.4 h
[4]; [9]
  bioavailability: 89.6%

## CN1CC=C(c2cnc(NCc3c(F)ccc4c3CCO4)n3cnnc23)CC1 [SL-E23]
Pfeiffer cells [1]
  IC50: 7.7 nM
PRC2 enzyme
  IC50: 4.7 nM
[2]; rat, microsomes
  Clearance rate in vivo Clint In Vivo Extpl: 15.8 mL/min
  Intrinsic clearance rate in vivo Clint In Vitro: 35.0 mL/min/gprot
  Liver clearance rate Clint Hep In Vivo Extpl: 8.81 mL/min
[2]; rat, microsomes, pH 7.4, Half life T-half
  half-life: 1 h
[2]; rat, pH 7.4
  Metabolic bioavailability MF %: 55.9%
[3]; mouse, microsomes
  Clearance rate in vivo Clint In Vivo Extpl: 3.67 mL/min
  Intrinsic clearance rate in vivo Clint In Vitro: 54.4 mL/min/gprot
  Liver clearance rate Clint Hep In Vivo Extpl: 1.65 mL/min
[3]; mouse, microsomes, pH 7.4, Half life T-half
  half-life: 0.643 h
[3]; mouse, pH 7.4
  Metabolic bioavailability MF %: 45.0%
Karpas-422 cells
  IC50: 2.8 nM
Pfeiffer cells [5]
  IC50: 2 nM
[4]; human, microsomes
  Clearance rate in vivo Clint In Vivo Extpl: 807 mL/min
  Intrinsic clearance rate in vivo Clint In Vitro: 10.5 mL/min/gprot
  Liver clearance rate Clint Hep In Vivo Extpl: 525 mL/min
[4]; human, microsomes, pH 7.4, Half life T-half
  half-life: 3.32 h
[4]; human, pH 7.4, Metabolic bioavailability MF %
  bioavailability: 65%

## O=S1(=O)CC=C(c2cnc(NCc3c(F)ccc4c3CCO4)n3cnnc23)CC1 [SL-ZYE-09]
PRC2 enzyme
  IC50: 4.5 nM
Pfeiffer cells [5]
  IC50: 3.2 nM

## CC1C=C(c2cnc(NCc3c(F)ccc4c3CCO4)n3cnnc23)CC(C)O1 (stereo not drawn) [SL-ZYE-24]
PRC2 enzyme
  IC50: 8.3 nM
Pfeiffer cells [5]
  IC50: 6 nM

## Fc1ccc2c(c1CNc1ncc(C3=CCOc4ccccc43)c3nncn13)CCO2 [SL-ZYE-28]
PRC2 enzyme
  IC50: 22.5 nM
Pfeiffer cells [5]
  IC50: 10 nM

## CC1(C)CC(c2cnc(NCc3c(F)ccc4c3CCO4)n3cnnc23)=CCO1 [SL-ZYE-119]
Pfeiffer cells [1]
  IC50: 8.1 nM
PRC2 enzyme
  IC50: 23.3 nM
Pfeiffer cells [5]
  IC50: 4 nM

## CCOC(=O)N1CC=C(c2cnc(NCc3c(F)ccc4c3CCO4)n3cnnc23)CC1 [SL-ZYE-148]
Pfeiffer cells [1]
  IC50: 1 to 3 nM
PRC2 enzyme
  IC50: 4.7 nM

## CCC(=O)N1CC=C(c2cnc(NCc3c(F)ccc4c3CCO4)n3cnnc23)CC1 [SL-ZYE-161]
Pfeiffer cells [1]
  IC50: 9 to 27 nM
PRC2 enzyme
  IC50: 40.8 nM
